Assays:
Assay in all cases: relative viability (nuclei count vs DMSO), 5 days (fraction); higher = more cells survive
TPCA-1 + Foretinib = compound: C1=CC(=CC=C1C2=CC(=C(S2)NC(=O)N)C(=O)N)F [TPCA-1] + COc1cc2c(Oc3ccc(NC(=O)C4(C(=O)Nc5ccc(F)cc5)CC4)cc3F)ccnc2cc1OCCCN1CCOCC1 [Foretinib] (partner 0.25 µM)
Summary of the method: (§1)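 For relative viability, nuclei counts in treated wells were divided by those in vehicle wells. Lung cancer cell lines had been pin-tool dosed in 1536-well plates the day after seeding and cultured for 5 days, then fixed and stained in one step (final 0.05% Triton X-100, 1% formaldehyde, 1 ug/ml Hoechst) and imaged at 4×. Doses were one drug alone or a fixed anchor-drug dose plus five library-drug doses (not always all listed) in √10 steps, and values are duplicate-plate medians.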

[1] = compound: C1/C(=C\C2=CC=CS2)/C(=O)/C(=C/C3=CC=CS3)/C1 + COc1cc2c(Oc3ccc(NC(=O)C4(C(=O)Nc5ccc(F)cc5)CC4)cc3F)ccnc2cc1OCCCN1CCOCC1 [Foretinib] (partner 0.25 µM)
Summary of the method: as §1

Lestaurtinib + Lapatinib = compound: C[C@]12O[C@H](C[C@]1(O)CO)n1c3ccccc3c3c4c(c5c6ccccc6n2c5c31)CNC4=O [Lestaurtinib] + CS(=O)(=O)CCNCc1ccc(-c2ccc3ncnc(Nc4ccc(OCc5cccc(F)c5)c(Cl)c4)c3c2)o1 [Lapatinib] (partner 2 µM)
Summary of the method: as §1

TPCA-1 + Navitoclax = compound: C1=CC(=CC=C1C2=CC(=C(S2)NC(=O)N)C(=O)N)F [TPCA-1] + CC1(C)CCC(c2ccc(Cl)cc2)=C(CN2CCN(c3ccc(C(=O)NS(=O)(=O)c4ccc(N[C@H](CCN5CCOCC5)CSc5ccccc5)c(S(=O)(=O)C(F)(F)F)c4)cc3)CC2)C1 [Navitoclax] (partner 0.5 µM)
Summary of the method: as §1

UMC-11
relative viability (TPCA-1 + Foretinib; first compound 0.04 µM): 1.16
relative viability (TPCA-1 + Foretinib; first compound 0.1265 µM): 1.02
relative viability (TPCA-1 + Foretinib; first compound 0.4 µM): 1.04
relative viability (TPCA-1 + Foretinib; first compound 1.265 µM): 0.925
relative viability (TPCA-1 + Foretinib; first compound 4 µM): 0.387
relative viability ([1]; first compound 0.2 µM): 0.993
relative viability ([1]; first compound 0.6325 µM): 1.12
relative viability ([1]; first compound 20 µM): 1.03
relative viability (Lestaurtinib + Lapatinib; first compound 0.005 µM): 1.01
relative viability (Lestaurtinib + Lapatinib; first compound 0.01581 µM): 0.921
relative viability (Lestaurtinib + Lapatinib; first compound 0.05 µM): 0.65
relative viability (Lestaurtinib + Lapatinib; first compound 0.1581 µM): 0.305
relative viability (Lestaurtinib + Lapatinib; first compound 0.5 µM): 0.196
relative viability (TPCA-1 + Navitoclax; first compound 0.04 µM): 0.354
relative viability (TPCA-1 + Navitoclax; first compound 0.1265 µM): 0.335
relative viability (TPCA-1 + Navitoclax; first compound 0.4 µM): 0.394
relative viability (TPCA-1 + Navitoclax; first compound 1.265 µM): 0.415
relative viability (TPCA-1 + Navitoclax; first compound 4 µM): 0.253

Source: the supplement of paper PMC10307832
